Measurements from patent publication US5488060A, “Substituted thiadiazoles, compositions containing them and their use as antimicrobial and marine antifouling agents” (The Dow Chemical Company, priority 1994, dated 1996).
≈ marks a conversion by molar mass, not a printed value. Where two headings read alike, the source gives them in different places.

Tests used:
Format in all cases: cell-based
Bacillus subtilis (Bs) = experiment: Minimum inhibitory concentration (MIC) in nutrient agar, Bacillus subtilis
How it was run: (§1)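 Agar dilution; nutrient agar at pH 6.8 (neutral) and pH 8.2 (alkaline, tricine-buffered). Compound from 1% acetone/water stock, final 500–1.0 ppm. Inoculum 10^8 CFU/mL via Steer's replicator. 30° C, 48 h; growth/no growth read.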

[1] = system: Enterobacter aerogenes (Ea); experiment: Minimum inhibitory concentration (MIC) in nutrient agar, Enterobacter aerogenes; details: Klebsiella aerogenes, 48 h
How it was run: as §1

Escherichia coli (Ec) = experiment: Minimum inhibitory concentration (MIC) in nutrient agar, Escherichia coli
How it was run: as §1

[2] = system: Klebsiella pneumoniae (Kp); experiment: Minimum inhibitory concentration (MIC) in nutrient agar, Klebsiella pneumoniae
How it was run: as §1

Proteus vulgaris (Pv) = experiment: Minimum inhibitory concentration (MIC) in nutrient agar, Proteus vulgaris; details: 48 h
How it was run: as §1

[3] = system: Pseudomonas aeruginosa (PRD-10); experiment: Minimum inhibitory concentration (MIC) in nutrient agar, Pseudomonas aeruginosa PRD-10; details: 48 h
How it was run: as §1

[4] = system: Pseudomonas aeruginosa (Pa); experiment: Minimum inhibitory concentration (MIC) in nutrient agar, Pseudomonas aeruginosa; details: 30° C., 48 hours, read-out: Minimum Inhibitory Concentration, Pa
How it was run: as §1

[5] = system: Salmonella choleraesuis (Se); experiment: Minimum inhibitory concentration (MIC) in nutrient agar, Salmonella choleraesuis; details: Salmonella enterica
How it was run: as §1

[6] = system: Staphylococcus aureus (Sa); experiment: Minimum inhibitory concentration (MIC) in nutrient agar, Staphylococcus aureus
How it was run: as §1

Aspergillus niger (An) = experiment: Minimum inhibitory concentration (MIC) in malt yeast agar, Aspergillus niger
How it was run: (§2)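 Malt yeast agar pH 5.5 + cpd (from 1% soln in acetone/water) at final 500–zero ppm, poured at 48 °C, dried 24 h. Inoculum: 7-day 30 °C slants suspended in saline/octylphenoxy polyethoxy ethanol, diluted 1:9, replicator-spotted. Incubated 30 °C; read 48 h yeast, 72 h fungi.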

Candida albicans (Ca) = experiment: Minimum inhibitory concentration (MIC) in malt yeast agar, Candida albicans
How it was run: (§3)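 Plates of pH 5.5 malt yeast agar carried test compound dispersed from a one percent acetone–water solution, final 500 to zero ppm. After diluted slant-culture suspensions were applied, plates were kept at 30 °C and examined at 72 h for fungi, 48 h for yeast.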

[7] = system: Penicillium chrysogenum (Pc); experiment: Minimum inhibitory concentration (MIC) in malt yeast agar, Penicillium chrysogenum
How it was run: as §2

[8] = system: Saccharomyces cerevisiae (Sc); experiment: Minimum inhibitory concentration (MIC) in malt yeast agar, Saccharomyces cerevisiae
How it was run: as §3

Trichoderma viride (Tv) = experiment: Minimum inhibitory concentration (MIC) in malt yeast agar, Trichoderma viride
How it was run: as §2

[9] = system: Aureobasidium pullulan (Ap); experiment: Minimum inhibitory concentration (MIC) in malt yeast agar, Aureobasidium pullulan
How it was run: as §2

Fusarium oxysporum (Fo) = experiment: Minimum inhibitory concentration (MIC) in malt yeast agar, Fusarium oxysporum; details: 72 h, pH 5.5, read-out: Minimum Inhibitory Concentration, Fo
How it was run: as §2

[10] = pH 6.8, nutrient agar, 30° C., 48 hours, read-out: Minimum Inhibitory Concentration, Bs
[11] = pH 6.8, read-out: Minimum Inhibitory Concentration, Ea
[12] = pH 8.2, read-out: Minimum Inhibitory Concentration, Ea
[13] = 48 h, pH 8.2, read-out: Minimum Inhibitory Concentration, Kp
[14] = pH 6.8, nutrient agar, 30° C., 48 hours, read-out: Minimum Inhibitory Concentration, Kp
[15] = pH 6.8, read-out: Minimum Inhibitory Concentration, Pv
[16] = pH 8.2, read-out: Minimum Inhibitory Concentration, Pv
[17] = pH 6.8, read-out: Minimum Inhibitory Concentration, PRD
[18] = pH 8.2, read-out: Minimum Inhibitory Concentration, PRD
[19] = 48 h, pH 8.2, read-out: Minimum Inhibitory Concentration, SC
[20] = pH 6.8, nutrient agar, 30° C., 48 hours, read-out: Minimum Inhibitory Concentration, Sa

SMILES	MIC (Bacillus subtilis (Bs); [10]) [µg/mL]	MIC [1, 11] [µg/mL]	MIC [1, 12] [µg/mL]	MIC [2, 13] [µg/mL]	MIC [2, 14] [µg/mL]	MIC (Proteus vulgaris (Pv); [15]) [µg/mL]	MIC (Proteus vulgaris (Pv); [16]) [µg/mL]	MIC [3, 17] [µg/mL]	MIC [3, 18] [µg/mL]	MIC ([4]; pH 6.8, nutrient agar) [µg/mL]	MIC ([4]; pH 8.2, nutrient agar) [µg/mL]	MIC [5, 19] [µg/mL]	MIC [6, 20] [µg/mL]	MIC (Fusarium oxysporum (Fo)) [µg/mL]	also measured
N#CSCSc1nsnc1-c1ccccc1Cl [Example XX, 4-(2-Chlorophenyl)-3-thiocyanatomethylthio-1,2,5-thiadiazole]	9 (≈ 30 µM)	500 (≈ 1670 µM)	> 500	> 500	500 (≈ 1670 µM)	500 (≈ 1670 µM)	> 500	500 (≈ 1670 µM)	> 500	500 (≈ 1670 µM)	> 500	> 500	9 (≈ 30 µM)	25 (≈ 83.4 µM)	MIC (Bacillus subtilis (Bs); pH 8.2, nutrient agar, 30° C., 48 hours, read-out: Minimum Inhibitory Concentration, Bs): 9 µg/mL (≈ 30 µM); MIC (Escherichia coli (Ec); 48 h, pH 6.8, read-out: Minimum Inhibitory Concentration, Ec): 500 µg/mL (≈ 1670 µM); MIC (Escherichia coli (Ec); pH 8.2, nutrient agar, 30° C., 48 hours, read-out: Minimum Inhibitory Concentration, Ec): 250 µg/mL (≈ 834 µM); MIC ([5]; 48 h, pH 6.8, read-out: Minimum Inhibitory Concentration, SC): 500 µg/mL (≈ 1670 µM); MIC ([6]; pH 8.2, nutrient agar, 30° C., 48 hours, read-out: Minimum Inhibitory Concentration, Sa): 9 µg/mL (≈ 30 µM); MIC (Aspergillus niger (An); pH 5.5, malt yeast agar, 30° C., 72 hours for fungi, read-out: Minimum Inhibitory Concentration, An): 9 µg/mL (≈ 30 µM); MIC (Candida albicans (Ca); 48 h, pH 5.5, read-out: Minimum Inhibitory Concentration, Ca): 250 µg/mL (≈ 834 µM); MIC ([7]; pH 5.5, malt yeast agar, 30° C., 72 hours for fungi, read-out: Minimum Inhibitory Concentration, PC): 9 µg/mL (≈ 30 µM); MIC ([8]; pH 5.5, malt yeast agar, 30° C., 48 hours for yeast, read-out: Minimum Inhibitory Concentration, SC): 9 µg/mL (≈ 30 µM); MIC (Trichoderma viride (Tv); pH 5.5, malt yeast agar, 30° C., 72 hours for fungi, read-out: Minimum Inhibitory Concentration, Tv): > 500 µg/mL; MIC ([9]; pH 5.5, malt yeast agar, 30° C., read-out: Minimum Inhibitory Concentration, Ap): 9 µg/mL (≈ 30 µM)
N#CSc1nsnc1-c1ccccc1Cl [Example IV, 4-(2-Chlorophenyl)-3-thiocyanatol-1,2,5-thiadiazole]	< 10	> 500	500 (≈ 1970 µM)	500 (≈ 1970 µM)	> 500	> 500	500 (≈ 1970 µM)	> 500	500 (≈ 1970 µM)	> 500	500 (≈ 1970 µM)	500 (≈ 1970 µM)	25 (≈ 98.5 µM)	5 (≈ 19.7 µM)	MIC (Bacillus subtilis (Bs); 48 h, pH 8.2, read-out: Minimum Inhibitory Concentration, Bs): 250 µg/mL (≈ 985 µM); MIC (Escherichia coli (Ec); 48 h, pH 8.2, read-out: Minimum Inhibitory Concentration, Ec): 500 µg/mL (≈ 1970 µM); MIC (Escherichia coli (Ec); pH 6.8, nutrient agar, 30° C., 48 hours, read-out: Minimum Inhibitory Concentration, Ec): 250 µg/mL (≈ 985 µM); MIC ([5]; pH 6.8, nutrient agar, 30° C., 48 hours, read-out: Minimum Inhibitory Concentration, SC): 100 µg/mL (≈ 394 µM); MIC ([6]; 48 h, pH 8.2, read-out: Minimum Inhibitory Concentration, Sa): 500 µg/mL (≈ 1970 µM); MIC (Aspergillus niger (An); 72 h, pH 5.5, read-out: Minimum Inhibitory Concentration, An): 25 µg/mL (≈ 98.5 µM); MIC (Candida albicans (Ca); pH 5.5, malt yeast agar, 30° C., 48 hours for yeast, read-out: Minimum Inhibitory Concentration, Ca): < 10 µg/mL; MIC ([7]; 72 h, pH 5.5, read-out: Minimum Inhibitory Concentration, PC): 10 µg/mL (≈ 39.4 µM); MIC ([8]; 48 h, pH 5.5, read-out: Minimum Inhibitory Concentration, SC): 2.5 µg/mL (≈ 9.85 µM); MIC (Trichoderma viride (Tv); 72 h, pH 5.5, read-out: Minimum Inhibitory Concentration, Tv): 10 µg/mL (≈ 39.4 µM); MIC ([9]; pH 5.5, read-out: Minimum Inhibitory Concentration, Ap): 5 µg/mL (≈ 19.7 µM)
